A short description of data set [1]: Cmax in rat. To be noted: in vivo. The format is ADME.
The nature of data set [2]: Half-life in rat. The format is ADME. The following applies: in vivo.
Data set [3] is described as follows: Brain to plasma ratio in rat. Format: ADME. To be noted: read-out: BPR.
Data set [4] can be described thus: Tmax in rat. Format: ADME. To be noted: in vivo.
The nature of data set [5]: AUClast in rat. Also noted: time 0 - last. Format: ADME. The following applies: in vivo.
The test system of data set [6] is Rattus norvegicus. The format is functional, organism-based. To be noted: dose 10.0 mg/kg.
For data set [7], the system named is Rattus norvegicus. Format: functional, organism-based. To be noted: dose 3-30 mg/kg.
Data set [8] relates to Rattus norvegicus. Briefly: Protection against amphetamine-induced psycho-motor activity in rat at 1 to 10 mg/kg, po. The format is functional, organism-based. The following applies: dose 1-10 mg/kg.
For data set [9], the species on record is Rattus norvegicus. Nature of the data set: Effect on sleep architecture of rats assessed as increase in slow wave sleep. The format is functional, organism-based.
The species named for data set [10] is Rattus norvegicus. Nature of the data set: Effect on sleep architecture of rats assessed as decrease in rapid eye movement sleep early in sleep period. Format: functional, organism-based.
For data set [11], the species on record is Rattus norvegicus. Briefly: Effect on sleep architecture of rats assessed as increase in rapid eye movement sleep late in sleep period. Format: functional, organism-based.
The subject of data set [12] is Canis familiaris. Briefly: Effect on blood pressure in dogs at 2 to 300 mg/kg, iv. Format: toxicity, organism-based, Canis lupus familiaris. The following applies: dog, in vivo, dose 2-300 mg/kg.
Data set [13] deals with Canis familiaris. Briefly: Effect on PR interval of heart in dogs at 2 to 300 mg/kg, iv. The format is toxicity, organism-based, Canis lupus familiaris. To be noted: dog, in vivo, dose 2-300 mg/kg.
Data set [14] concerns Canis familiaris. Briefly: Effect on QRS duration of heart in dogs at 2 to 300 mg/kg, iv. To be noted: dog, in vivo, dose 2-300 mg/kg. Format: toxicity, organism-based, Canis lupus familiaris.
In data set [15] the test system is Canis familiaris. Briefly: Effect on QTc interval of heart in dogs at 2 to 300 mg/kg, iv. The format is toxicity, organism-based, Canis lupus familiaris. To be noted: dog, in vivo, dose 2-300 mg/kg.
Data set [16] has as its system Canis familiaris. Briefly: Effect on core body temperature in dogs at 2 to 300 mg/kg, iv. The format is toxicity, organism-based, Canis lupus familiaris. To be noted: dog, in vivo, dose 2-300 mg/kg.
For data set [17], the system named is Canis familiaris. Briefly: Effect on heart rate in dogs at 10 mg/kg, iv. Format: toxicity, organism-based, Canis lupus familiaris. To be noted: dog, in vivo.
In data set [18] the test system is Canis familiaris. Briefly: Effect on QRS duration of heart in dogs at 10 mg/kg, iv. The following applies: dog, in vivo. Format: toxicity, organism-based, Canis lupus familiaris.
In data set [19] the test system is Canis familiaris. Nature of the data set: Effect on QTc interval of heart in dogs at 10 mg/kg, iv. The format is toxicity, organism-based, Canis lupus familiaris. The following applies: dog, in vivo.
Data set [20] relates to Rattus norvegicus. Briefly: Effect on neurobehavioral function in female rats at 30 mg/kg, po administered a single dose at 2 hrs. Format: toxicity, organism-based. The following applies: in vivo.
Data set [21] relates to Rattus norvegicus. Briefly: Effect on neurobehavioral function in female rats at 30 mg/kg, po administered a single dose at 24 hrs. The format is toxicity, organism-based. The following applies: in vivo.
The subject of data set [22] is Rattus norvegicus. Briefly: Effect on neurobehavioral function in female rats assessed as increase in foot splay width at 15 mg/kg, po administered a single dose. The format is toxicity, organism-based. The following applies: in vivo.
The test system of data set [23] is Rattus norvegicus. Briefly: Effect on neurobehavioral function in female rats at 30 to 3000 mg/kg, po. To be noted: in vivo, dose 30-3000 mg/kg. Format: toxicity, organism-based.
Data set [24] has as its system Rattus norvegicus. Briefly: Effect on respiratory function in female rats assessed as increase in PenH at 300 to 2000 mg/kg, po. The format is toxicity, organism-based. The following applies: in vivo, dose 300-2000 mg/kg.
Data set [25] has as its system Rattus norvegicus. Nature of the data set: Effect on respiratory function in female rats assessed as increase in PenH at 30 mg/kg, po. Format: toxicity, organism-based. To be noted: in vivo.
Data set [26] has as its system Rattus norvegicus. Nature of the data set: Effect on respiratory function in male rats assessed as change in airway resistance at 6 mg/kg, iv. The following applies: in vivo. Format: toxicity, organism-based.
Data set [27] is described as follows: Clearance in dog at 0.5 mg/kg, po. The format is ADME, organism-based, Canis lupus familiaris. To be noted: in vivo.
The nature of data set [28]: Half-life in dog at 0.5 mg/kg, po. To be noted: in vivo. The format is ADME, organism-based, Canis lupus familiaris.
Data set [29] is described as follows: Oral bioavailability in dog at 0.5 mg/kg. The format is ADME, organism-based, Canis lupus familiaris. To be noted: in vivo.
Data set [30] in a line: Plasma concentration in male rats at 25 mg/kg, po at 2 hrs using 1% methylcellulose. The format is ADME, organism-based. To be noted: rat.
The nature of data set [31]: Plasma concentration in male rats at 25 mg/kg, po at 2 hrs using 90% PEG400. The format is ADME, organism-based. To be noted: rat.
A short description of data set [32]: Brain concentration in male rats at 25 mg/kg, po at 2 hrs using 1% methylcellulose. Format: ADME, organism-based. To be noted: rat, read-out: Drug uptake.
Data set [33] in a line: Brain concentration in male rats at 25 mg/kg, po at 2 hrs using 90% PEG400. The format is ADME, organism-based. To be noted: rat, read-out: Drug uptake.
In another data set the target is CYP3A4 (Homo sapiens, UniProt P08684). Briefly: Inhibition of recombinant human CYP3A4 in human liver microsomes at 1 uM relative to control. Format: ADME. (Liver microsomes are vesicles of endoplasmic reticulum, rich in cytochrome P450 enzymes.)
Another data set has as its target CYP3A5 (Homo sapiens, UniProt P20815). Briefly: Inhibition of recombinant human CYP3A5 in human liver microsomes at 1 uM relative to control. Format: ADME.
A short description of data set [34]: Induction of CYP3A4 mRNA production in primary human hepatocytes at 10 uM relative to control. The format is functional, Hepatocyte.
Data set [35] has as its target T1, pregnane X receptor (PXR, NR1I2) (Homo sapiens, UniProt O75469).
T1 sequence (O75469 whole entry): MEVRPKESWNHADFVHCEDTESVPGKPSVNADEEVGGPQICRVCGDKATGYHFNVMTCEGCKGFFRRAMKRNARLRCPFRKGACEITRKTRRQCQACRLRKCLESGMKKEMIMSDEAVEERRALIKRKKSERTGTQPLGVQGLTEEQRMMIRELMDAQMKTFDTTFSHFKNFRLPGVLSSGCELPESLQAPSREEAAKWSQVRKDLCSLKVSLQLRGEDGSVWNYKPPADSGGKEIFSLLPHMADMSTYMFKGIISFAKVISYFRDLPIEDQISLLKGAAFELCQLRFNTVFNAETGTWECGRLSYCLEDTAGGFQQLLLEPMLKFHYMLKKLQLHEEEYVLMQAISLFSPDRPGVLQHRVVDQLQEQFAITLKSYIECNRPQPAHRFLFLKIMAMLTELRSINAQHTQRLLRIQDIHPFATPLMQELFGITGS
Briefly: Activation of human pregnane X receptor at 10 uM relative to control. To be noted: read-out: Activity.

In a further data set the test system is Hepatocyte. Nature of the data set: Induction of […] mRNA production in primary human hepatocytes at 10 uM relative to control. Format: functional, cell-based.
Data set [36] can be described thus: Toxicity in female Sprague-Dawley rats at 10 to 1000 mg/kg, po assessed as effect on fertility. The following applies: rat, in vivo, dose 10-1000 mg/kg. Format: organism-based.
The nature of data set [37]: Toxicity in female Sprague-Dawley rats at 10 to 1000 mg/kg, po. Format: organism-based. The following applies: rat, in vivo, dose 10-1000 mg/kg.
A short description of data set [38]: Toxicity in Sprague-Dawley rats at 30 to 1000 mg/kg, po assessed as maternal toxicity. The format is organism-based. The following applies: rat, in vivo, dose 30-1000 mg/kg.
Data set [39] can be described thus: Toxicity in Sprague-Dawley rats at 30 to 1000 mg/kg, po assessed as developmental toxicity. Format: organism-based. The following applies: rat, in vivo, dose 30-1000 mg/kg.
The nature of data set [40]: Toxicity in Sprague-Dawley rats at 30 to 2000 mg/kg, po assessed as micronuclei induction in bone marrow. Format: organism-based. To be noted: rat, in vivo, dose 30-2000 mg/kg.
Data set [41] in a line: Toxicity in Beagle dogs at 3 to 300 mg/kg, po measured by 10-day extrapolatory dose-range finding study. The format is organism-based, Canis lupus familiaris. To be noted: dog, in vivo, 240 h, dose 3-300 mg/kg.
A short description of data set [42]: Toxicity in rabbits at 30 to 1000 mg/kg, po assessed as maternal toxicity. The format is organism-based, Oryctolagus cuniculus. The following applies: rabbit, in vivo, 672 h, dose 30-1000 mg/kg, time 4 weeks.
Data set [43] in a line: Toxicity in rabbits at 30 to 1000 mg/kg, po assessed as developmental toxicity. The format is organism-based, Oryctolagus cuniculus. The following applies: rabbit, in vivo, dose 30-1000 mg/kg.
Data set [44] is described as follows: Toxicity in rats at 10 to 1000 mg/kg, po assessed as developmental toxicity. The format is organism-based. The following applies: rat, in vivo, dose 10-1000 mg/kg.
For data set [45], the system named is Rattus norvegicus. Nature of the data set: Protection against harmaline-induced tremor in rats at 10 mg/kg. Format: functional, organism-based.
Data set [46] has as its system Rattus norvegicus. The format is functional, organism-based. The following applies: dose 100.0 mg/kg.

This is an account of results in ChEMBL document CHEMBL5050846 (2020).

Active and inactive are the calls of the source. No cut-off for these calls is given here.

In general, Cmax refers to the highest concentration seen after dosing. In general, half-life refers to how long it takes for the measured level to halve. Lower therefore signals rapid decline. One may read the Tmax as the time from dosing to the highest level. Broadly, the AUC(0-t) is the area under the concentration-time curve up to a stated or last time point. Low values mean low exposure, high ones high exposure. In general, CL/F refers to clearance divided by bioavailability, as obtained after extravascular dosing. As usually defined, the bioavailability is dose-corrected exposure relative to a reference, in per cent. In general, inhibition refers to the drop in the measured response relative to a control, in per cent. Usually NOAEL stands for the highest dose or exposure tested at which no adverse effect was seen.

Chain of CYP3A5 (P20815 whole entry): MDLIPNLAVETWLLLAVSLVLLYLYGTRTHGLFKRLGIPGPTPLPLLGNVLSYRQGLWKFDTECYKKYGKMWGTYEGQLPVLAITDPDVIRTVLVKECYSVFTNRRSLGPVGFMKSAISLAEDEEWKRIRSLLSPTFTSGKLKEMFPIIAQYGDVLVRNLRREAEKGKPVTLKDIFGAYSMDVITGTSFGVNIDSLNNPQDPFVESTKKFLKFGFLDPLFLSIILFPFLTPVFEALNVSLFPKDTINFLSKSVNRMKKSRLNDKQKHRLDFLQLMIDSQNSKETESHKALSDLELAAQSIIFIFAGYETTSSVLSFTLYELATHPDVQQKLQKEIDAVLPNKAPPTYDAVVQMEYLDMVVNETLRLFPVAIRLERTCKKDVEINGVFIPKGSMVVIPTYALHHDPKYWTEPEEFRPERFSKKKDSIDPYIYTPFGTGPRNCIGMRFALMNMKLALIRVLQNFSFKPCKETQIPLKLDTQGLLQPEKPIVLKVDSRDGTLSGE
Chain of CYP3A4 (P08684 whole entry): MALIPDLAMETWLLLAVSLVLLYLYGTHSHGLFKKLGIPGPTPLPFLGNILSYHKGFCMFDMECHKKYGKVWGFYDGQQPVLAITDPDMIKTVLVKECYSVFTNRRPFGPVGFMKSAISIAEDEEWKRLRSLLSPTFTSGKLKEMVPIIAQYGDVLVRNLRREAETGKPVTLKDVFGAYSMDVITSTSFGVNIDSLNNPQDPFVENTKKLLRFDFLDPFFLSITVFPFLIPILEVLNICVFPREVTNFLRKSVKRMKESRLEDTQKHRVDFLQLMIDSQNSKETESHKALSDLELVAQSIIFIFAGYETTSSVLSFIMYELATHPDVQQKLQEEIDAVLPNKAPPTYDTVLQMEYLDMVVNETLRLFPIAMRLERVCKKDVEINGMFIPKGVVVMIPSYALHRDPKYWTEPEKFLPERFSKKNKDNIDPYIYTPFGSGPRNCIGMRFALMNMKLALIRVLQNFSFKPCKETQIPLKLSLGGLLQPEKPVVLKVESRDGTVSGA

For `N#Cc1ccc([C@@]2(C3CC3)c3cc(Cl)ccc3NC(=O)N2CC(F)(F)F)cc1`, in data set [1], the Cmax came out at 3 µM. The molecule further showed a half-life in data set [2] of 354 min. Besides, the Kp in data set [3] worked out at 1.1.
For `C[C@@H](NC(=O)Cc1ccc(C2CC2)cc1)c1ccc(OCC(F)(F)F)cn1`, in data set [4], the Tmax was 18 min. The molecule further registered a Cmax in data set [1] of 7.5 µM. The molecule further yielded an area under the curve AUC(0-t) in data set [5] of 30 µM·h. For the same molecule, in [2], the half-life was 90 min. In data set [3], the Kp worked out at 0.27.
`CC(C)c1ccc(CC(=O)N[C@H](C)c2ccc(OCC(F)(F)F)cn2)cc1` [SUVECALTAMIDE]: the Activity result in the data set with Rattus norvegicus [6], in the data set with Rattus norvegicus [7], in the data set on Rattus norvegicus [8], in the data set filed under Rattus norvegicus [9], in the data set filed under Rattus norvegicus [10] and in the data set filed under Rattus norvegicus [11] was “Active” in each case. Moreover, the Activity result with Hepatocyte is “Active”. For the same molecule, the Activity entry in the data set with Canis familiaris [12], with Canis familiaris [13], with Canis familiaris [14], in the data set on Canis familiaris [15], in the data set with Canis familiaris [16] and in the data set with Canis familiaris [17] was “Non-Toxic” in each case. Further, the Activity entry in the data set on Canis familiaris [18] is listed as “Non-Toxic”; with Canis familiaris [19], “Non-Toxic”; in the data set on Rattus norvegicus [20] it was “Non-Toxic”; in the data set on Rattus norvegicus [21], “Non-Toxic”; in the data set on Rattus norvegicus [22] it was “Toxic”; with Rattus norvegicus [23], “Non-Toxic”. Also, the Activity result is on record as “Non-Toxic” in the data set on Rattus norvegicus [24]; “Non-Toxic” in the data set on Rattus norvegicus [25]; “Non-Toxic” with Rattus norvegicus [26]; “<=10%” in data set [34]; “Toxic” in data set [38]; “Toxic” in data set [39]. The Activity result is listed as “Non-Toxic” in [40]; “Non-Toxic” in [41]; “Toxic” in [42]; “Toxic” in data set [43]; “Non-Toxic” in data set [44]. Moreover, the CL/F in data set [27] was determined as 0.4 mL/min/kg. Also, the t1/2 in [28] stood at 3.1 h. For the same molecule, the bioavailability in [29] was determined as 47%. Besides, the concentration at 2 h in data set [30] came out at 6.3 µM; in data set [31], 3.3 µM; in data set [32], 3.1 µM; in data set [33], 1800 nM. Further, the inhibition at 1 µM at CYP3A4 and at CYP3A5 was more than 80% in each case. Further, the activity at 10 µM in [35] is not above 34%. In addition, the NOAEL in data set [36] is not below 1000 mg/kg/day; in [37], 100 mg/kg/day.
For the molecule `CC1(C)C[C@@H](CN2CCC(F)(CNC(=O)c3cc(Cl)cc(Cl)c3)CC2)CCO1`, the Activity result in the data set on Rattus norvegicus [45] is “Active”.
For the molecule `CCC1(C)CC(=O)NC1=O` (configuration not stated), the Activity result with Rattus norvegicus [46] was “Active”.
